What all share (assay): NCI anticancer screen, dose series, 48 h
In test [1] the test system is SW-620 colon.
The test system of test [2] is OVCAR-4 ovarian.
The test system of test [3] is SN12C renal.
Test [4] relates to EKVX NSCLC.
Test [5] deals with CCRF-CEM leukemia.
Test [6] deals with HS 578T breast.
The test system of test [7] is A549 NSCLC.
Test [8] concerns K-562 leukemia.
The test system of test [9] is MOLT-4 leukemia.
Test [10] deals with CAKI-1 renal.
For test [11], the system named is 786-0 renal.
Test [12] relates to IGROV1 ovarian.
In test [13] the test system is LOX IMVI melanoma.
Test [14] concerns NCI-H23 lung.

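Cells were grown in 96-well plates and exposed to each compound for 48 hours at five concentrations; endpoints were interpolated linearly between bracketing concentrations, or set to the highest concentration if not reached. TGI is the concentration that stops growth completely.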 Bounds are passed on as bounds.

`ONC1=Nc2cc(Cl)ccc2C(=S)N2CSCC12` (centres undefined): the TGI in [1], in [2], in test [3], in test [4], in test [5] and in [6] was greater than 100 µM each time. Also, the TGI in test [7], in test [8], in test [9], in [10], in [11] and in [12] was greater than 100 µM throughout. Besides, the TGI in test [13] was greater than 100 µM.
For `COc1ccc(Cn2c3c(cc(OC(C)=O)c2=O)Cc2ccccc2-3)cc1`, the TGI was 22.4 µM in test [1]; 28.5 µM in test [14]; greater than 50 µM in test [2]; 20.8 µM in [3]; 28.3 µM in test [4]; greater than 50 µM in test [5]. Besides, the TGI is greater than 50 µM in [6]; greater than 50 µM in test [7]; 34 µM in [8]; 28.8 µM in test [9]; 35.7 µM in test [10]; 12.8 µM in [11]. The figures for the TGI in test [12] and in test [13] were 20.3 µM and 19.7 µM, respectively.
For `O=C1OC(CCCN2CCCCC2)(c2ccccc2)CC12CCCC2` (centres undefined), the TGI in [1], in test [14], in test [2], in test [3], in test [4] and in test [5] was greater than 100 µM throughout. Moreover, the TGI in test [6] was greater than 100 µM; in test [7], greater than 100 µM; in test [8], greater than 96.3 µM; in test [9] it was greater than 100 µM; in test [10], greater than 100 µM; in [11], greater than 100 µM. For the same compound, the TGI in test [12] and in [13] was greater than 100 µM throughout.
Take `CS(=O)(=O)Nc1ccc2ccccc2c1-c1c(NS(C)(=O)=O)ccc2ccccc12`: the TGI in test [1], in test [14], in test [2], in [3], in test [4] and in test [5] was greater than 25 µM in each case. In addition, the TGI in test [6], in test [7], in test [8], in test [9], in test [10] and in test [11] was greater than 25 µM throughout. The TGI in test [12] and in test [13] was greater than 25 µM each time.
Take `Nc1ccccc1CCN1CCN(CCCc2ccccc2)CC1`: the TGI in [1], in test [14], in test [2], in test [3], in test [4] and in test [5] was greater than 100 µM each time. Also, the TGI in [6], in test [7], in test [8], in [9], in [10] and in test [11] was greater than 100 µM in each case. For the same compound, the TGI in [12] and in test [13] was greater than 100 µM each time.
Consider `COc1ccc(Cn2c(=O)c(OC)c(C)c3cc4ccccc4cc32)cc1`, for which the TGI in test [1] is greater than 100 µM; in [14], 77.5 µM; in test [2] it was greater than 100 µM; in test [3] it was 42.6 µM; in [4] it was 60.3 µM; in [5] it was greater than 100 µM. In addition, the TGI in test [6] is greater than 100 µM; in test [7], greater than 100 µM; in test [8] it was greater than 100 µM; in test [9], 53 µM; in test [10], greater than 100 µM; in [11], greater than 100 µM. Further, the TGI came to 57 µM in test [12] and 41.7 µM in [13].
Turning to `Cc1n(CC(C)C)c2c([n+]1C)C(=O)c1ccccc1C2=O`, the TGI in [1] was 1.4 µM; in test [14], 0.107 µM; in test [2], 1.02 µM; in test [3], 0.0671 µM; in [4] it was 0.649 µM; in test [5], 27 µM. Further, the TGI in test [6] is 3.05 µM; in test [7] it was 1.34 µM; in test [8], greater than 100 µM; in [9] it was 0.955 µM; in test [10] it was greater than 21.7 µM; in [11] it was 3.41 µM. Further, the TGI turned out to be 0.101 µM in [12] and 0.867 µM in test [13].
Consider `CSc1c(C(=O)Nc2ccccc2)c(N)n(N)c(=O)c1C#N`, for which the TGI in test [1], in test [14], in [2], in test [3], in test [4] and in [5] was greater than 100 µM in each case. In addition, the TGI in [6], in test [7], in test [8], in test [9], in test [10] and in [11] was greater than 100 µM throughout. For the same compound, the TGI in test [12] and in test [13] was greater than 100 µM throughout.
With `CCOC(=O)c1sc(=S)n(-c2ccc(Cl)cc2)c1-n1cc(-c2ccccc2)c(C#N)c1N`, the TGI in test [1] was greater than 100 µM; in [14], 70.6 µM; in test [2], 22.7 µM; in [3], 69.7 µM; in test [4], 94.7 µM; in [5], greater than 100 µM. Also, the TGI in test [6] is 14.5 µM; in test [7], 42.4 µM; in test [8], greater than 100 µM; in test [9] it was greater than 100 µM; in [10], greater than 100 µM; in [11], 22.9 µM. The TGI in [12] is 40.5 µM; in [13], greater than 100 µM.
On to `O=C1CS(=O)(=O)C(c2cccc(Oc3ccccc3)c2)N1c1ccc(Cl)cc1` (centres undefined), for which the TGI in test [1] is greater than 100 µM; in [14] it was greater than 100 µM; in test [2] it was greater than 100 µM; in test [3] it was 57.7 µM; in test [4], 51.3 µM; in [5], greater than 100 µM. Besides, the TGI in test [6] is greater than 100 µM; in test [7], greater than 100 µM; in test [8], 63 µM; in [9], 62.7 µM; in test [10] it was 64.8 µM; in [11], 36.5 µM. Moreover, the results for the TGI in [12] and in test [13] were 39 µM and 29.1 µM, respectively.

The values above are taken from PubChem BioAssay (NCI).
